In patent US10898567B2, “Synthetic long peptides (SLP) for therapeutic vaccination against Hepatitis B virus infection” (priority 2014, dated 2021):

Test system: PBMC derived from HBV-immune donors
Type: cell-based, human
Settings: six HBV-immune donors; for positive IFNγ response (SI>3) in HBV-immune donors / IFNγ response in multiple HBV-immune donors: IFNγ-ELISpot; for average SI of the IFNγ-responses: PBMC pre-stimulated with 3 nmol/ml peptide for 72 hours; for IFNγ response in multiple HBV-immune donors: SI>3
Protocol: To detect antigen-specific IFNγ-producing human T cells, the PBMC were first pre-stimulated with 3 nmol/ml of the indicated peptide for 72 hours at 37° C. […] After stimulation of the PBMC, the coating antibody was aspirated from the plate, and washed 4 times with PBS. To block aspecific binding, 100 μl of IMDM containing 8% FCS was added to all wells and incubated at 37° C. for 1 hour. In the meantime, stimulated PBMC were harvested, centrifuged, resuspended in X-vivo 15 medium (Lonza) and counted. […] The medium in the wells of the PVDF plate was aspirated and 100 μl of each PBMC sample was added to the plate in quadruplicates. The plates were incubated at 37° C. overnight. The next day, the supernatant was discarded and plates are washed 6 times with PBS/Tween20 0.05%. […] Next, plates were washed 6 times using PBS/Tween20 0.05% and 1 μg/ml Extravidin-Alkaline phosphatase (ALP) (Sigma-Aldrich) was added to all wells (100 μl/well) in PBS with 1% FBS. The plates were incubated for 1 hour at RT. ALP substrate solution BCIP/NBT-plus (Mabtech) was prepared and 100 μl/well was added to all wells after the plates were washed 4 times with PBS/Tween20 0.05%. To terminate the colorimetric reaction (after 1-20 minutes), tap water was used to wash the plates extensively. After drying, the formed spots were measured on a Biosys Bioreader 5000.
To assess the relevance of the selected vaccine peptides for the clearance of a naturally occurring HBV infection, we tested the presence of T cell responses against the 13 selected HBV peptides in PBMC derived from six HBV-immune donors. After isolation of the PBMC, cells were stimulated with each of the 13 peptides and an IFNγ-ELISpot was performed to detect T cell responses.

Sequence	positive IFNγ response (SI>3) in HBV-immune donors	average SI of the IFNγ-responses	IFNγ response in multiple HBV-immune donors
SPFLLAQFTSAICSVVRRAFPHCLAFSYMDDVVLGA (HBV Polymerase aa 524 - 559 (SLP No. 14)) [SLP14]	Responses were observed	1.97	
VVNHYFQTRHYLHTLWKAGILYKRETTRSASFCGSPYSW (HBV Polymerase aa 139 - 177 (SLP No. 5)) [SLP5]	Responses were observed	2.11	
YPALMPLYACIQAKQAFTFSPTYKAFLSKQYMNLYPVAR (HBV Polymerase aa 653 - 691 (SLP No. 18)) [SLP18]	Responses were observed	1.86	
ALPSPSPSAVPADHGAHLSLRGLPVCAFSSAGP [SLP26]	Responses were observed	1.56	
HDSCSRQLYVSLMLLYKTYGWKLHLYSHPIVLGF (HBV Polymerase aa 481 - 514 (SLP No. 13)) [SLP13]	Responses were observed	2.44	induced responses in multiple donors
SSWAFAKYLWEWASVRFSWLSLLVPFVQWFV (HBV large surface protein aa 328-358) [SLP34]	Responses were observed	3.02	induced responses in multiple donors
NLLSSNLSWLSLDVSAAFYHIPLHPAAMPHLLIGSSGL (HBV Polymerase aa 419 - 456 (SLP No. 10)) [SLP10]	Responses were observed	2.40	induced responses in multiple donors
MPLSYQHFRKLLLLDDGTEAGPLEEELPRL (HBV Polymerase aa 1 - 30 (SLP No. 1)) [SLP1]		1.21	
CAFSSAGPCALRFTSARRMETTVNAHQILPKVLHK [SLP27]	Responses were observed		
DPASRDLVVNYVNTNVGLKIRQLLWFHISCLTFGR (HBV Core aa 107 - 141 (SLP No. 24)) [SLP24]	Responses were observed	2.54	induced responses in multiple donors
